Entries after “also recorded” stand apart in the source; their conditions may differ. Where two headings read alike, the source gives them in different places.
Key:
serum proteome = test: Phase 1b bed rest study, serum proteomic profiling; format: in vivo, human
Experimental: Proteomic profiling and analysis were performed on serum collected from the phase 1B clinical trial subjects (treated vs placebo) as described above. Eleven (11) treated and 10 placebo subject's serum levels were profiled for their proteomics collected at day −1 (baseline), day 5 and day 11. A linear regression model was implemented with an interaction term between treatment group and day to identify proteins whose differential abundance between the treatment groups influenced the average rate of change per day of a given protein. This model was fit separately for all proteins measured, and the resulting coefficient (on the interaction term) for each protein was used to rank order all proteins from most positive to most negative coefficient.
For each human aging cohort phenotype (various physical function phenotypes and mortality), two protein sets consisting respectively (to preserve directionality) of the proteins positively and negatively associated (p<0.05) with that phenotype. Significant phenotypes in the right-hand graph of FIG. 48 and FIG. 49 with their GSEA plots and p-values (significant phenotypes were not shown when their protein sets overlapped substantially with those of already shown phenotypes).

[1] = system: healthy volunteers aged ≥65 years; test: Phase 1b bed rest study Part B (MD), limb circumference and ultrasound muscle dimensions; format: in vivo, human
Experimental: In each of the 3 cohorts in Part B, 30 total subjects are enrolled to receive treatment in either Cohort 1A, Cohort 1B, or Cohort 1C. Cohort 1A includes 10 subjects who all receive placebo NS over a 1 hour infusion for 10 days on Days 1 through Day 10. […] Patients are at bed rest for the entire 10-day duration of treatment.
Ultrasound images were collected during the following study visits: Day −1 (baseline), Day 6 (pre-dose), and day 11 (end of treatment). Ultrasounds were performed of both the vastus lateralis and gastroenemius to measure cross-sectional area, color flow doppler, antero-posterior (AP) diameter, and echo density. Muscle circumference was also measured. Ultrasound imaging was conducted by the same operator throughout the study for all subjects. Ultrasound readings were done by the same reader throughout the study for all subjects. […] The leg measured (right vs. left) and leg location (medial vs. lateral) remained consistent for all ultrasounds.
Muscle circumference was measured in centimeters (cm) using a measuring tape and recorded on the ultrasound worksheet at the time of imaging.
The ultrasound images were collected before conducting the skeletal muscle micro-biopsy. Prior to testing, subjects were instructed to wear shorts on testing day to avoid compression of the upper leg musculature and to expose the upper portion of the thigh. Subjects were required to lay supine on an examination table with both legs fully extended for a minimum of 5 minutes to allow for fluid shifts to occur. Each subject was instructed to lay on their non-dominant side to obtain skeletal muscle ultrasound images of the vastus lateralis and gastrocnemius in the dominant leg. Subjects were positioned with their legs on top of one another and slightly bent at the knee. Ultrasound images of the vastus lateralis will be captured at 50% of the straight-line distance from the greater trochanter and the lateral epicondyle of the femur.
To ensure proper probe placement and consistent image capture location, a dotted line was drawn transversely and longitudinally along the surface of the skin from the aforementioned location. All measures of muscle morphology were obtained using a B-mode, 12-MHz linear probe US (General Electric vivid E9) to provide acoustic contact without depressing the dermal layer of the skin. Longitudinal B-mode and transverse field of view (FOV) images were acquired during each exam and analyzed. Ultrasound settings remained fixed for examination of each subject: image gain was set at 50 decibels (dB), dynamic range was set at 72, and image depth was set at 5 cm. Three panoramic transverse images (PTI) were captured in the transverse plane, perpendicular to the long axis of the muscle. These images utilized the extended-field-of-view ultrasonography in order to include entire area of the vastus lateralis in a single panoramic image.
Additionally, three single longitudinal images (SLI) were captured in the longitudinal plane, parallel to the long axis of the muscle. […] This same technique was applied to ultrasound of the gastrocnemius. Either the medial head or lateral head of the gastrocnemius was used for ultrasound evaluation, but not both. The same head was used for all gastrocnemius ultrasounds throughout the study.
One day before (baseline, D-1) and 5 (D5) and 10 (D10) days after initiation of bed rest, key muscle atrophy endpoints were measured: thigh circumference; cross-sectional area (CSA) and A-P diameter of vastus lateralis (ultrasound); ultrasound muscle quality grade, an index that quantifies fatty degeneration in muscle (ultrasound echo density); and muscle protein synthesis rate (biopsy). Parameters measured during the 10-day bed rest period include thigh circumference, muscle size, muscle quality (e.g., fatty degeneration), and muscle protein synthetic rate.

[2] = system: healthy volunteers aged ≥65 years; test: Phase 1b bed rest study, safety (TEAEs); format: in vivo
Experimental: Adverse events are coded using the Medical Dictionary for Regulatory Activities. The number of events, incidence, and percentage of TEAEs are calculated overall by system organ class, preferred term, and treatment group for each cohort and treatment group. The number and percentage of subjects with TEAEs are further summarized by severity and relationship to study drug. AEs related to study drug, AEs leading to withdrawal, SAEs, and deaths are also similarly summarized and/or listed in a similar manner.

mouse APLNR = biological target: T1, mouse APLNR (Mus musculus, UniProt Q9WV08); test: PathHunter β-arrestin eXpress GPCR assay, CHO cells stably expressing mouse APLNR; format: cell-based; conditions: for Emax: CHO
T1 construct: host or cells: CHO cells
T1 sequence (Q9WV08 1-377): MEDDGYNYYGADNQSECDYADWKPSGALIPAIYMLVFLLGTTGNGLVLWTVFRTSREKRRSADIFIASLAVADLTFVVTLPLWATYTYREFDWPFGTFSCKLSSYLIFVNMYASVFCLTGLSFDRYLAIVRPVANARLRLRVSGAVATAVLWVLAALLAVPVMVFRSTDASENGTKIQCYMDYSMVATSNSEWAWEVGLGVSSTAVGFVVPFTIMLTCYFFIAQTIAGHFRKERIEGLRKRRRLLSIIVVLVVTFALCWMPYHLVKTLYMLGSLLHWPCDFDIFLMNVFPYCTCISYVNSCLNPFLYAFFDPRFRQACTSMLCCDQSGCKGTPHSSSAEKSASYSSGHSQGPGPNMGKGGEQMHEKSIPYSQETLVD
Experimental: APLNR activation was determined by β-arrestin recruitment as measured by the ProLink […] complementation technology (93-0001, DiscoveRx). In brief, CHO cells stably expressing APLNR were seeded and incubated overnight at 37° C. The compounds were tested in duplicate and diluted to obtain a 10-point curve with 3-fold serial dilutions (<1% DMSO). The compounds and cells were incubated for 3 hours at 37° C. After the incubation period the detection reagents were added and the plate chemiluminescent signal was measured after 30 min at RT.

[3] = 240 mg IV once daily, 10 days bed rest

For `COc1cccc(OC)c1-n1c(NS(=O)(=O)[C@@H](C)[C@H](C)c2ncc(C)cn2)nnc1-c1cncc(C)c1` [BGE-105, (2S,3R)—N-(4-(2,6-dimethoxyphenyl)-5-(5-methyl-3-pyridinyl)-4H-1,2,4-triazol-3-yl)-3-(5-methyl-2-pyrimidinyl)-2-butanesulfonamide], the “number of proteins associated with grip strength (out of 379) changed by treatment” value (serum proteome) was 58, the “number of proteins associated with walk speed (out of 526) changed by treatment” value (serum proteome) was 35 and the “number of proteins associated with frailty (out of 992) changed by treatment” value (serum proteome; p<0.05) was 69. For the same compound, the “reduction in loss of vastus lateralis cross-sectional area vs placebo” value [1, 3] was > 50%, the “reduction in loss of vastus lateralis muscle thickness vs placebo” value [1, 3] was 75% and the “decrease in gastrocnemius diameter, mean percent change from baseline” value ([1]; 10 days of bed rest (placebo 10.982%)) was 2.942. The “decrease in gastrocnemius cross-sectional area, mean percent change from baseline” value ([1]; 10 days of bed rest (placebo 15.72%)) was 7.758%, the “improvement in muscle dimension vs placebo” value ([1]; Cohort 1B vs Cohort 1A) was ~75% and the “decrease in calf circumference” value ([1]; female subjects (placebo 5.486%)) was 1.166%. For the same compound, the “decrease in thigh circumference” value ([1]; female subjects (placebo 6.06%)) was 1.674%, the “decrease in gastrocnemius cross sectional area” value ([1]; female subjects (placebo 15.32%)) was 5.558% and the “decrease in vastus lateralis cross sectional area” value ([1]; female subjects (placebo 23.67%)) was 9.676%. For the same compound, the “reduction in muscle loss from disuse atrophy” value ([1]; healthy volunteer bed rest study) was “up to 75%”, the “increase in thigh circumference after 10-day bed rest” value ([1]; older patients, BGE-105 treated group (placebo 6.438% reduction)) was 0.8% and the “number of subjects (out of 11) with fully preserved or increased thigh circumference” value ([1]; over 10 days of bed rest) was 7. For the same compound, the “percent of subjects with fully preserved or increased thigh circumference” value ([1]; over 10 days of bed rest) was 64%, the “decrease in muscle size measured by ultrasound” value ([1]; treatment group (Cohort 1B) (placebo 21%)) was 5.664% and the “number of volunteers (out of 11) exhibiting TEAEs” value ([2]; Cohort 1B) was 7. The “percent of volunteers exhibiting TEAEs” value ([2]; Cohort 1B) was 64%, the “serious / severe adverse effects” value ([2]; Phase 1b bed rest study) was “no serious adverse effects; also recorded: no severe adverse effects” and the tolerability ([2]; Phase 1b bed rest study) was “well tolerated”. For the same compound, the EC50 (mouse APLNR) was 0.8 nM, the Emax (mouse APLNR; read-out: maximum effect (Emax)) was 65% and the Emax (mouse APLNR; read-out: maximum effect (Emax), replication) was 60%.
